Measurements: patent US20160281050A1, “METHODS FOR TREATING A CULTURE OF HAEMATOCOCCUS PLUVIALIS FOR CONTAMINATION USING SALT AND HYDROGEN PEROXIDE” (HELIAE DEVELOPMENT LLC, priority 2015, published 2016)
Where two headings read alike, the source gives them in different places.

How the values were obtained:
chytrids [1] = system: chytrids
From the text: Culture samples of Haematococcus pluvialis (Strain 2) were collected on the second day of the culture from open raceway bioreactor #2430 operating in conditions: reactor volume of 170,000 L; Daily PAR not measured; pH of 7.3; and paddlewheel speed of 70. The culture samples were distributed into flasks for culturing, consisting of duplicate untreated controls and duplicate treatments. […] Samples were taken from the flask cultures daily to quantify % lysis and % chytrid infection and cell dry weight was quantified every other day for a duration of 11 days.

chytrids [2] = system: chytrids; remark: listed apart in the source
From the text: (§1) Culture samples of Haematococcus pluvialis (Strain 2) were collected on the second day of culture from open raceway bioreactor #2410 operating in conditions: reactor volume of 150,000 L; Daily PAR of 9.77 mol m^−2 d^−1; pH of 7.3; and paddlewheel speed of 70%. Culture samples were distributed into flasks for culturing, consisting of duplicate untreated controls and duplicate treatments. […] Samples were taken from the flask cultures daily to quantify % lysis and % chytrid infection and cell dry weight was quantified every other day for a duration of 11 days.

[3] = system: Haematococcus pluvialis (Strain 2); assay: % lysis and culture dry weight in flasks (Example 11)
From the text: as §1

[4] = 0.0105 mL/L 1 time daily for 3 days, day 1
[5] = 0.0105 mL/L 1 time daily for 3 days, day 2
[6] = 0.0105 mL/L 1 time daily for 3 days, day 3
[7] = 0.0105 mL/L 1 time daily for 3 days, day 4
[8] = 0.0105 mL/L 1 time daily for 3 days, day 5
[9] = 0.0105 mL/L 1 time daily for 3 days, day 6
[10] = 0.0105 mL/L 1 time daily for 3 days, day 7
[11] = 0.0105 mL/L 1 time every other day, day 1
[12] = 0.0105 mL/L 1 time every other day, day 2
[13] = 0.0105 mL/L 1 time every other day, day 3
[14] = 0.0105 mL/L 1 time every other day, day 4
[15] = 0.0105 mL/L 1 time every other day, day 5
[16] = 0.0105 mL/L 1 time every other day, day 6
[17] = 0.0105 mL/L 1 time every other day, day 7
[18] = 0.0105 mL/L 1 time per day, day 1
[19] = 0.0105 mL/L 1 time per day, day 2
[20] = 0.0105 mL/L 1 time per day, day 3
[21] = 0.0105 mL/L 1 time per day, day 4
[22] = 0.0105 mL/L 1 time per day, day 5
[23] = 0.0105 mL/L 1 time per day, day 6
[24] = 0.0105 mL/L 1 time per day, day 7

hydrogen peroxide [H2O2]
% Chytrid infection (chytrids [1]; 0.0105 mL/L 1 time per day, day 10): 0.0 ± 0.0% | % Chytrid infection (chytrids [1]; 0.0140 mL/L 1 time per day for 3 d then every other day, day 0): 0.0 ± 0.0% | % Chytrid infection (chytrids [1]; 0.0140 mL/L 1 time per day for 3 d then every other day, day 3): 0.0 ± 0.0% | % Chytrid infection (chytrids [1]; 0.0140 mL/L 1 time per day for 3 d then every other day, day 4): 0.0 ± 0.0% | % Chytrid infection (chytrids [1]; 0.0140 mL/L 1 time per day for 3 d then every other day, day 5): 0.0 ± 0.0% | % Chytrid infection (chytrids [1]; 0.0140 mL/L 1 time per day for 3 d then every other day, day 6): 1.7 ± 2.4% | % Chytrid infection (chytrids [1]; 0.0140 mL/L 1 time per day for 3 d then every other day, day 7): 0.0 ± 0.0% | % Chytrid infection (chytrids [1]; 0.0140 mL/L 1 time per day for 3 d then every other day, day 8): 0.8 ± 1.2% | % Chytrid infection (chytrids [1]; 0.0140 mL/L 1 time per day for 3 d then every other day, day 9): 0.0 ± 0.0% | % Chytrid infection (chytrids [1]; 0.0140 mL/L 1 time per day for 3 d then every other day, day 10): 0.0 ± 0.0% | % Chytrid infection (chytrids [1]; 0.0140 mL/L 1 time per day, day 0): 0.0 ± 0.0% | % Chytrid infection (chytrids [1]; 0.0140 mL/L 1 time per day, day 3): 0.0 ± 0.0% | % Chytrid infection (chytrids [1]; 0.0140 mL/L 1 time per day, day 4): 0.0 ± 0.0% | % Chytrid infection (chytrids [1]; 0.0140 mL/L 1 time per day, day 6): 0.0 ± 0.0% | % Chytrid infection (chytrids [1]; 0.0140 mL/L 1 time per day, day 7): 1.7 ± 2.4% | % Chytrid infection (chytrids [1]; 0.0140 mL/L 1 time per day, day 8): 0.8 ± 1.2% | % Chytrid infection (chytrids [1]; 0.0140 mL/L 1 time per day, day 9): 0.8 ± 1.2% | % Chytrid infection (chytrids [1]; 0.0140 mL/L 1 time per day, day 10): 0.0 ± 0.0% | % Chytrid infection (chytrids [1]; 0.0175 mL/L 1 time per day for 2 d then every other, day 0): 0.0 ± 0.0% | % Chytrid infection (chytrids [1]; 0.0175 mL/L 1 time per day for 2 d then every other, day 3): 0.0 ± 0.0% | % Chytrid infection (chytrids [1]; 0.0175 mL/L 1 time per day for 2 d then every other, day 4): 0.0 ± 0.0% | % Chytrid infection (chytrids [1]; 0.0175 mL/L 1 time per day for 2 d then every other, day 5): 0.0 ± 0.0% | % Chytrid infection (chytrids [1]; 0.0175 mL/L 1 time per day for 2 d then every other, day 6): 0.8 ± 1.2% | chytrid infection (chytrids [1]; all treated flasks): under 10% | % Chytrid infection (chytrids [2]; [4]): 0.0 ± 0.0% | % Chytrid infection (chytrids [2]; [5]): 0.0 ± 0.0% | % Chytrid infection (chytrids [2]; [6]): 0.0 ± 0.0% | % Chytrid infection (chytrids [2]; [7]): 0.0 ± 0.0% | % Chytrid infection (chytrids [2]; [8]): 0.8 ± 1.2% | % Chytrid infection (chytrids [2]; [9]): 0.0 ± 0.0% | % Chytrid infection (chytrids [2]; [10]): 1.7 ± 2.4% | % Chytrid infection (chytrids [2]; [11]): 0.0 ± 0.0% | % Chytrid infection (chytrids [2]; [12]): 0.0 ± 0.0% | % Chytrid infection (chytrids [2]; [13]): 2.5 ± 1.2% | % Chytrid infection (chytrids [2]; [14]): 0.0 ± 0.0% | % Chytrid infection (chytrids [2]; [15]): 0.8 ± 1.2% | % Chytrid infection (chytrids [2]; [16]): 3.3 ± 0.0% | % Chytrid infection (chytrids [2]; [17]): 0.8 ± 1.2% | % Chytrid infection (chytrids [2]; [18]): 0.0 ± 0.0% | % Chytrid infection (chytrids [2]; [19]): 0.0 ± 0.0% | % Chytrid infection (chytrids [2]; [20]): 0.0 ± 0.0% | % Chytrid infection (chytrids [2]; [21]): 0.0 ± 0.0% | % Chytrid infection (chytrids [2]; [22]): 2.5 ± 3.5% | % Chytrid infection (chytrids [2]; [23]): 0.0 ± 0.0% | % Chytrid infection (chytrids [2]; [24]): 0.0 ± 0.0% | chytrid infection (chytrids [2]; all treated flasks, 0.0105 mL/L): below 5% | % Lysis [3, 4]: 5.0 ± 5.0% | % Lysis [3, 5]: 3.3 ± 0.0% | % Lysis [3, 6]: 7.5 ± 1.2% | % Lysis [3, 7]: 0.8 ± 1.2% | % Lysis [3, 8]: 5.0 ± 0.0% | % Lysis [3, 9]: 4.2 ± 1.2% | % Lysis [3, 10]: 1.7 ± 2.4% | % Lysis [3, 11]: 5.0 ± 5.0% | % Lysis [3, 12]: 3.3 ± 2.4% | % Lysis [3, 13]: 4.2 ± 1.2% | % Lysis [3, 14]: 3.3 ± 0.0% | % Lysis [3, 15]: 3.3 ± 2.4% | % Lysis [3, 16]: 3.3 ± 2.4% | % Lysis [3, 17]: 3.3 ± 0.0% | % Lysis [3, 18]: 5.0 ± 5.0% | % Lysis [3, 19]: 2.5 ± 1.2% | % Lysis [3, 20]: 5.8 ± 3.5% | % Lysis [3, 21]: 4.2 ± 1.2% | % Lysis [3, 22]: 4.2 ± 3.5% | % Lysis [3, 23]: 0.0 ± 0.0% | % Lysis [3, 24]: 2.4 ± 0.0% | cell lysis ([3]; flasks across treatments, 0.0105 mL/L): below 10%
